In patent publication US20240115575A1, “PHARMACEUTICAL COMPOSITION OF MULTI-TARGET PROTEIN KINASE INHIBITORS, AND USE THEREOF” (CSPC Zhongqi Pharmaceutical Technology (Shijiazhuang) Co., …, priority 2020, published 2024):

What was measured:
[1] = system: MV4-11 (FLT3-ITD mutation) subcutaneous tumor; assay: In-vivo anti-tumor test, MV4-11 subcutaneous tumor model; settings: orally administered once daily for 21 days
Experimental: (§1) According to the in-vivo anti-tumor test described under Biological Assessment of the Patent Application No. WO 2011/147066, the samples of the salt obtained in Preparation Example 2 were tested (specifically for FLT3-ITD acute myeloid leukemia, non-small cell lung cancer with EGFR activating mutation, and Ph-positive chronic myeloid leukemia, respectively).

[2] = API-excipient compatibility test; assay type: physicochemical; settings: 14 days and 28 or 30 days; illumination, 60° C., high humidity; maximum single impurity, total impurity, color
Experimental: The active ingredient (compound of Formula B) was mixed evenly with various excipients mentioned in the present application respectively, and put in 10-ml injection vials. The injection vials were stored for 14 days and 28 days or 30 days under the conditions of an illumination of 4500 lux±500 lux/peripheral humidity, a high temperature of 60° C.±2° C./peripheral humidity, a high humidity of 90%±5% RH, and a temperature of 25° C.±2° C. respectively to detect the impurity content, so as to test the compatibility of the active ingredient with various excipients.

[3] = system: human non-small cell lung cancer HCC827; assay: In-vivo anti-tumor test, non-small cell lung cancer model; settings: orally administered once daily for 30 days
Experimental: as §1

c-KIT = c-KIT (Homo sapiens, UniProt P10721); assay: Evaluation of the inhibitory activity of kinase; assay type: biochemical
Experimental: (§2) The samples of the salt obtained in Preparation Example 2 were tested according to the evaluation of the inhibitory activity of kinase described under Biological Assessment of the Patent Application No. WO 2011/147066.

MET = MET (Homo sapiens, UniProt P08581); assay: Evaluation of the inhibitory activity of kinase; assay type: biochemical
MET, sequence (P08581 25-1390): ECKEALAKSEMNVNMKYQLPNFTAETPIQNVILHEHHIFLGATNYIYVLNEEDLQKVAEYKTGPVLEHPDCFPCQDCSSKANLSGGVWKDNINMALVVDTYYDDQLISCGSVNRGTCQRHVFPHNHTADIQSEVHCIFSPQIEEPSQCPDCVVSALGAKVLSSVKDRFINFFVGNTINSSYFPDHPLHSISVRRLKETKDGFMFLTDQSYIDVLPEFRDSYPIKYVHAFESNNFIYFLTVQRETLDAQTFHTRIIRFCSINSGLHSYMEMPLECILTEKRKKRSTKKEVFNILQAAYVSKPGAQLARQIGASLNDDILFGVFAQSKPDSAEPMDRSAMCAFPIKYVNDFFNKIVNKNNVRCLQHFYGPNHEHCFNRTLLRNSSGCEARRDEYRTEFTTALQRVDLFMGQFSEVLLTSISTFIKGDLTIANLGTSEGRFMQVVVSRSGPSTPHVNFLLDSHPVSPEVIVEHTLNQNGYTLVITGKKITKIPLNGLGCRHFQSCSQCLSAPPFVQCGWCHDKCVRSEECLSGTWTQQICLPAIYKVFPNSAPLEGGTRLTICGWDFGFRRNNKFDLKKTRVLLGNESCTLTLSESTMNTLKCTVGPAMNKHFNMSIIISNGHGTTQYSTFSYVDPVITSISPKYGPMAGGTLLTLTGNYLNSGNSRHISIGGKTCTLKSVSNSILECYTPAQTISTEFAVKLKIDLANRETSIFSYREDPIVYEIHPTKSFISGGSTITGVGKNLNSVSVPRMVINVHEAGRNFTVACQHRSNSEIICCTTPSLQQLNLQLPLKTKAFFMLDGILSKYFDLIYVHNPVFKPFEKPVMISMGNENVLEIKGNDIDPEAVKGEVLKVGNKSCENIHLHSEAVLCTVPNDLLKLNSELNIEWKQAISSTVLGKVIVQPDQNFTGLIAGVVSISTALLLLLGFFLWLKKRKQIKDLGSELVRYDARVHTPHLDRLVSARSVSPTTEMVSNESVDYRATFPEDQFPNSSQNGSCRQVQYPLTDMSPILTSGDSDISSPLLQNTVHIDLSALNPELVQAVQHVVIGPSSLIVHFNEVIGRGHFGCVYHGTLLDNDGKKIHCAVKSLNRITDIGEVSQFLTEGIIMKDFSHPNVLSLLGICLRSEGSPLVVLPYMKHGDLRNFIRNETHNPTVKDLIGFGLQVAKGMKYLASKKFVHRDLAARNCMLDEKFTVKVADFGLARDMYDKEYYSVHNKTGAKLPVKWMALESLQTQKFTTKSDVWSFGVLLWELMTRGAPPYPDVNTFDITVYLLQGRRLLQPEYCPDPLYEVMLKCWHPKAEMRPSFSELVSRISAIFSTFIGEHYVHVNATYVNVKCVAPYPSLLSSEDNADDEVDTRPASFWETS
Experimental: as §2

ALK = ALK (Homo sapiens, UniProt Q9UM73); assay: Evaluation of the inhibitory activity of kinase; assay type: biochemical
ALK, sequence (Q9UM73 19-1620): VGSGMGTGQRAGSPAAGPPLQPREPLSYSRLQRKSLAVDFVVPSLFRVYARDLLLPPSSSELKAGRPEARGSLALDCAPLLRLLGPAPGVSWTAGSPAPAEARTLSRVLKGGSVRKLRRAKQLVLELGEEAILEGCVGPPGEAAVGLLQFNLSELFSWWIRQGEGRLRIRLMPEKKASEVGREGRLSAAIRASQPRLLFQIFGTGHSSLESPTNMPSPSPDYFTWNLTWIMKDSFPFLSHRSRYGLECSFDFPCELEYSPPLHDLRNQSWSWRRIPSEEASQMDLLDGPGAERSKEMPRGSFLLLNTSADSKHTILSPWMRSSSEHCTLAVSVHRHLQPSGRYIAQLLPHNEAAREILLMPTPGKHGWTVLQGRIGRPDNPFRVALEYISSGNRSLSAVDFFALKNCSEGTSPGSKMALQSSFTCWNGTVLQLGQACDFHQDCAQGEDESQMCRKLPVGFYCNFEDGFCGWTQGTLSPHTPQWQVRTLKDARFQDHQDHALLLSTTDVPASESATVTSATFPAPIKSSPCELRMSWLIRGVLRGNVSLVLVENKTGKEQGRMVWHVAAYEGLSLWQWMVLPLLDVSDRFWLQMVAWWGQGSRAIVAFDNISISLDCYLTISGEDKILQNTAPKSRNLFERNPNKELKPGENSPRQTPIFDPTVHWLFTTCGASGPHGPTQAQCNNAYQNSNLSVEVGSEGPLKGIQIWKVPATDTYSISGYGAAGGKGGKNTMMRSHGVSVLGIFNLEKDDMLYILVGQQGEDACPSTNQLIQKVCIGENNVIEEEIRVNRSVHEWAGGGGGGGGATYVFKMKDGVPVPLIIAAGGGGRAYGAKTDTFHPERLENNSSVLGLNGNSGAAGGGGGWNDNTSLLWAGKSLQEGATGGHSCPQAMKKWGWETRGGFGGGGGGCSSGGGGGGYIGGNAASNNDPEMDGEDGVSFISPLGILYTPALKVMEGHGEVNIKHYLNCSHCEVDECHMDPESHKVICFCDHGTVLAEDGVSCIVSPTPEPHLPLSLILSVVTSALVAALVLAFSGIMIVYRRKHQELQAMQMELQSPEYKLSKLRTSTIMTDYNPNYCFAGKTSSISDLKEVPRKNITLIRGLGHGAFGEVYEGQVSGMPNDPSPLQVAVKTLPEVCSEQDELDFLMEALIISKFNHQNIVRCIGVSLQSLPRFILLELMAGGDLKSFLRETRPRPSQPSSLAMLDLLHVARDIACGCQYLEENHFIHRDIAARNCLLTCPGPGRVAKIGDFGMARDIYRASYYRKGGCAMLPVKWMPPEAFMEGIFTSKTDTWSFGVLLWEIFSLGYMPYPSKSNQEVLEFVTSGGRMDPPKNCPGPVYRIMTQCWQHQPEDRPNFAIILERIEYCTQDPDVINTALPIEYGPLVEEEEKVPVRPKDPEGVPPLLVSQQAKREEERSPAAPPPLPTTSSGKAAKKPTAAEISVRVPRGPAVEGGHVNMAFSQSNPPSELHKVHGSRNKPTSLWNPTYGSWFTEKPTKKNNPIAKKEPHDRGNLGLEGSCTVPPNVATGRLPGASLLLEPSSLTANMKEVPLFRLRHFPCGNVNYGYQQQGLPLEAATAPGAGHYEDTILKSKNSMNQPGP
Experimental: as §2

PDGFRα = PDGFRα (Homo sapiens, UniProt P16234); assay: Evaluation of the inhibitory activity of kinase; assay type: biochemical
PDGFRα, sequence (P16234 24-1089): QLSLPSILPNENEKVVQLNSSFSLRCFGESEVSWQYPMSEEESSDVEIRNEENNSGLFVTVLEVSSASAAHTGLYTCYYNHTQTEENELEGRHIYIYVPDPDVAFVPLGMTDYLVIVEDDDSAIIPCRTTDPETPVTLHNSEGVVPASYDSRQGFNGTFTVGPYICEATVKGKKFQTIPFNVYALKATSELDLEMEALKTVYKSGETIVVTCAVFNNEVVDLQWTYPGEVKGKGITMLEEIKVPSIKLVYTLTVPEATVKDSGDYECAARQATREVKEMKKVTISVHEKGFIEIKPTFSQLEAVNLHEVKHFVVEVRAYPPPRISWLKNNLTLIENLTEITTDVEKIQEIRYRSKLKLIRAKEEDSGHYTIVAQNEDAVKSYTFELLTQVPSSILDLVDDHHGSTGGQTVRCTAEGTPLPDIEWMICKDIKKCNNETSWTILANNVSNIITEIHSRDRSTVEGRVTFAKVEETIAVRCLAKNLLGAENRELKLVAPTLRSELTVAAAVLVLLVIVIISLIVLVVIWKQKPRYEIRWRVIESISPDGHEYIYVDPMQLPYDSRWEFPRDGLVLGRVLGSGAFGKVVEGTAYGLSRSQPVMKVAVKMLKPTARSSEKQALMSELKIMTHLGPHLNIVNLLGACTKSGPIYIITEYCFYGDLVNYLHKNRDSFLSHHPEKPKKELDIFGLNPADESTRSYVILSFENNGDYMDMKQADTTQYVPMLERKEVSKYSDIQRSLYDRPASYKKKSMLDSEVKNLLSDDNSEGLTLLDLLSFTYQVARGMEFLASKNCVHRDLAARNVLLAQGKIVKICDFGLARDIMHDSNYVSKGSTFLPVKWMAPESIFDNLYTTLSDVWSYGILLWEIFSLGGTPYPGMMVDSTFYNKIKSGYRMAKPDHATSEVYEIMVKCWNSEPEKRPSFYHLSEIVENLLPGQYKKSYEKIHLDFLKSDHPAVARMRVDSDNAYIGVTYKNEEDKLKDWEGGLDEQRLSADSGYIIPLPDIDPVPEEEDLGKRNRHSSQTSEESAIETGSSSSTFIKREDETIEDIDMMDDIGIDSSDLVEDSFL
Experimental: as §2

VEGFR2 = VEGFR2 (Homo sapiens, UniProt P35968); assay: Evaluation of the inhibitory activity of kinase; assay type: biochemical
Experimental: as §2

BTK = BTK (Homo sapiens, UniProt Q06187); assay: Evaluation of the inhibitory activity of kinase; assay type: biochemical
BTK, sequence (Q06187 whole entry): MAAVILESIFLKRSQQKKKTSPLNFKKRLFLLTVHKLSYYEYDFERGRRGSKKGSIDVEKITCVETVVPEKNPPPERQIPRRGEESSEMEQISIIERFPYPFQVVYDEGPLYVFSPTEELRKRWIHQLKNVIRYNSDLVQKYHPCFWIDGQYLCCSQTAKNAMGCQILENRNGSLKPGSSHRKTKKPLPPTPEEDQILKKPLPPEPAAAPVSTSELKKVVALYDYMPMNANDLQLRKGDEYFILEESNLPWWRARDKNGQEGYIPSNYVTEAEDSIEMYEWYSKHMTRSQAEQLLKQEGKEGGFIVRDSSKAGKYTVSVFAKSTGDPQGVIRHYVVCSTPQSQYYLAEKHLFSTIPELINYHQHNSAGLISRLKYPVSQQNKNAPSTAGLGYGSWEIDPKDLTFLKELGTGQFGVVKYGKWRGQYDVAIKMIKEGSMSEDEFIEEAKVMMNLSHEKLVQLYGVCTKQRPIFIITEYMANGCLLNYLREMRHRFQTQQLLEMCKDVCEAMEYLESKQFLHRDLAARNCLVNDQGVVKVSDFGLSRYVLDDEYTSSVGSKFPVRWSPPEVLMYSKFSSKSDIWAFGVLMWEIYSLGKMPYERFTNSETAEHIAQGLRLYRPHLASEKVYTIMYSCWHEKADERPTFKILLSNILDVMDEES
Experimental: as §2

With `CC(C)n1c(Nc2cccnc2)nc2cnc(Nc3ccc(N4CCN(C)CC4)cc3)nc21` [Preparation Example 2] the “effect on tumor growth” value ([1]; 5 mg/kg) was “completely inhibit the tumor growth”, the “effect on tumor growth” value ([1]; 10 mg/kg) was “complete tumor regression” and the “effect on tumor growth” value ([1]; 20 mg/kg) was “complete tumor regression”. The “compatibility of the active ingredient with various excipients” value [2] was “good compatibility”, the “effect on tumor (compared with the initial tumor)” value ([3]; 7.5 mg/kg) was “tumor shrinkage” and the “effect on tumor (compared with the initial tumor)” value ([3]; 15 mg/kg) was “tumor shrinkage”. For the same compound, the “effect on tumor (compared with the initial tumor)” value ([3]; 30 mg/kg) was “almost complete tumor regression”, the “effect on growth of HCC827, dose dependence” value ([3]; 7.5, 15 and 30 mg/kg) was “dose-dependently inhibit the growth” and the “inhibiting the activity of kinase” value (c-KIT) was “capable of inhibiting”. For the same compound, the “inhibiting the activity of kinase” value (MET) was “capable of inhibiting”, the “inhibiting the activity of kinase” value (ALK) was “capable of inhibiting” and the “inhibiting the activity of kinase” value (PDGFRα) was “capable of inhibiting”. For the same compound, the “inhibiting the activity of kinase” value (VEGFR2) was “capable of inhibiting” and the “inhibiting the activity of kinase” value (BTK) was “capable of inhibiting”.
